In patent US20250163057A1, “DCN-1 MODULATING COMPOUNDS AND METHODS OF USE THEREOF” (Cellarity, Inc., priority 2023, published 2025):
Where two headings read alike, the source gives them in different places.

Columns and labels:
[1] = tested on: fetal hemoglobin gene HBG1; assay: HBG1 Nanostring Assay in CD34+ HSPC erythroid differentiation culture; assay type: cell-based, human; conditions: for EC50: Homo sapiens, 240 h, HBG1 induction, Day10 of erythroid differentiation; for Nanostring Ymax obs (%): relative to a control compound (C1)
Method in brief: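 HBG1 counts came from direct nCounter hybridization (67° C, 22 h) of day-10 lysates, normalized to ERCC positive controls and a housekeeping gene, giving EC50 and Ymax versus a reference compound. Compounds in 0.1% DMSO were present from day −2 while cells underwent EPO/SCF/IL-3 erythroid differentiation, with IL-3 dropped at day 7, at 37° C.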

[2] = tested on: Cullin-3 (CUL3) neddylation; assay: AlphaLISA assay for Cullin-3 (CUL3) neddylation in TF 1 cells; assay type: cell-based; conditions: Homo sapiens, TF-1, 3 h, 3 hours treatment
Method in brief: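 Neddylated CUL3 was quantified by AlphaLISA in lysates of TF 1 cells exposed for 3 h to test compound in IMDM without supplements. Percent inhibition set between vehicle and 1 μM DI-1548 positive control; IC50 derived by Hill-equation fitting of dose-response curves.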

[3] = target: DCN1 (DCUND1) protein PONY domain (Homo sapiens (Human), UniProt Q96GG9); assay: TR-FRET assay, DCN1 binding with FAM-labeled probe
Sequence of DCN1 (DCUND1) protein PONY domain (Q96GG9 60-248): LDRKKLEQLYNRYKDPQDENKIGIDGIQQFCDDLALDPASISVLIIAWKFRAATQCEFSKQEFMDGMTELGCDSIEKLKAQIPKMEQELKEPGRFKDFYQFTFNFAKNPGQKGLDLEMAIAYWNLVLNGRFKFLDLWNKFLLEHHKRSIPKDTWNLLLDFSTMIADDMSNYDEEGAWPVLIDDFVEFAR
Method in brief: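 Tb-DCN1 PONY domain (E. coli, biotin/streptavidin-Tb); FAM-labelled non-covalent inhibitor probe; TritonX buffer, 200 mM NaCl; 5 nM DCN1 + 20 nM probe or 0.31 nM DCN1 + 900 nM total probe; 0.1% DMSO; TR-FRET read 1, 5, 24 hrs.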

DCN1 protein = DCN1 protein (Homo sapiens (Human), UniProt Q96GG9); assay: Intact Protein MS Analysis with the RapidFire-TOF System (covalent adduct formation); assay type: binding; conditions: MS Emax; 400 nM DCN1, 3 hours at room temperature
Sequence of DCN1 protein (Q96GG9 whole entry): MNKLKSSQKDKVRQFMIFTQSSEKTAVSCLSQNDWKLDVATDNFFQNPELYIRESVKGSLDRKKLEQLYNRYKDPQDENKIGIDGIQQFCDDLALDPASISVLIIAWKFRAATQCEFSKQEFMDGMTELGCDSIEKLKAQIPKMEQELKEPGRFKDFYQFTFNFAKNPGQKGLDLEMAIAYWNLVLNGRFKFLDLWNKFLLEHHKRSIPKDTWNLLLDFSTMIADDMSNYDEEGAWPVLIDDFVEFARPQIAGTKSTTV
Method in brief: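 Tag-cleaved human DCN1 (400 nM) expressed in E. coli, in 25 mM Tris-HCl, 200 mM NaCl, 1 mM DTT, was incubated with 11 compound concentrations for 3 h at room temperature and quenched with 0.2% formic acid. Intact-protein Q-TOF MS with deconvolution detected the compound adduct mass.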

[4] = 24 hr after treatment with compound, read-out: TR FRET IC50 24 hr
[5] = read-out: TR FRET IC50 1 hr, 1 hr after treatment with compound

C=C(CN1CCOCC1)C(=O)N[C@H](C)c1nn(-c2ccccc2)c2c1[C@H](c1ccc(F)cc1)[C@H](NC(=O)c1cccc(C(F)(F)F)c1)C(=O)N2CC (mixture of isomers) [Compound I-8]
EC50 [1]: > 1000 nM | Nanostring Ymax obs (%) [1]: ++ (Nanostring Ymax greater than 50.0 and less than or equal to 100.0) | IC50 [2]: 100 to 1000 nM | IC50 [3, 4]: ≤ 200 nM | IC50 [3, 5]: ≤ 200 nM | % Adduct Formation (DCN1 protein): + (MS Emax % adduct formation greater than or equal to 0.0 and less than or equal to 30.0)

C=CS(=O)(=O)N[C@H](C)c1nn(-c2ccccc2)c2c1[C@H](c1ccc(F)cc1)[C@H](NC(=O)c1cccc(C(F)(F)F)c1)C(=O)N2CC (mixture of isomers) [Compound I-74]
EC50 [1]: 100 to 1000 nM | Nanostring Ymax obs (%) [1]: ++ (Nanostring Ymax greater than 50.0 and less than or equal to 100.0) | IC50 [2]: ≤ 100 nM | IC50 [3, 4]: ≤ 200 nM | IC50 [3, 5]: ≤ 200 nM | % Adduct Formation (DCN1 protein): +++ (MS Emax % adduct formation greater than 80.0 and less than or equal to 100.0)

C=C(C(=O)NCc1nn(-c2ccccc2)c2c1[C@@H](c1ccc(F)cc1)[C@H](NC(=O)c1cccc(C(F)(F)F)c1)C(=O)N2CC)C(C)N1CCOCC1 (mixture of isomers) [Compound I-88]
EC50 [1]: > 1000 nM | Nanostring Ymax obs (%) [1]: + (Nanostring Ymax greater than or equal to 0.0 and less than or equal to 50.0) | IC50 [2]: ≤ 100 nM | IC50 [3, 4]: ≤ 200 nM | IC50 [3, 5]: ≤ 200 nM | % Adduct Formation (DCN1 protein): + (MS Emax % adduct formation greater than or equal to 0.0 and less than or equal to 30.0)

CCN1C(=O)[C@@H](NC(=O)c2cccc(C(F)(F)F)c2)[C@@H](c2ccc(F)cc2)c2c(CNC(=O)/C(C#N)=C/C(C)(C)C)nn(-c3ccccc3)c21 (racemic) [Compound I-173]
EC50 [1]: 100 to 1000 nM | Nanostring Ymax obs (%) [1]: ++ (Nanostring Ymax greater than 50.0 and less than or equal to 100.0) | IC50 [2]: ≤ 100 nM | % Adduct Formation (DCN1 protein): +++ (MS Emax % adduct formation greater than 80.0 and less than or equal to 100.0)

C=C(CN(C)C)C(=O)N(C)Cc1nn(-c2ccccc2)c2c1[C@H](c1ccc(F)cc1)[C@H](NC(=O)c1cccc(C(F)(F)F)c1)C(=O)N2CC (racemic) [Compound I-178]
EC50 [1]: 100 to 1000 nM | Nanostring Ymax obs (%) [1]: ++ (Nanostring Ymax greater than 50.0 and less than or equal to 100.0) | IC50 [2]: ≤ 100 nM | % Adduct Formation (DCN1 protein): +++ (MS Emax % adduct formation greater than 80.0 and less than or equal to 100.0)

CCN1C(=O)[C@@H](NC(=O)c2cccc(C(F)(F)F)c2)[C@@H](c2ccc(F)cc2)c2c(CNC(=O)[C@H](C)Cl)nn(-c3ccccc3)c21 (racemic) [Compound I-179]
EC50 [1]: > 1000 nM | Nanostring Ymax obs (%) [1]: + (Nanostring Ymax greater than or equal to 0.0 and less than or equal to 50.0) | IC50 [2]: 100 to 1000 nM | % Adduct Formation (DCN1 protein): + (MS Emax % adduct formation greater than or equal to 0.0 and less than or equal to 30.0)

CCN1C(=O)[C@@H](NC(=O)c2cccc(C(F)(F)F)c2)[C@@H](c2ccc(F)cc2)c2c(CNC(=O)[C@H](C)Br)nn(-c3ccccc3)c21 (racemic) [Compound I-180]
EC50 [1]: > 1000 nM | Nanostring Ymax obs (%) [1]: + (Nanostring Ymax greater than or equal to 0.0 and less than or equal to 50.0) | IC50 [2]: 100 to 1000 nM | % Adduct Formation (DCN1 protein): + (MS Emax % adduct formation greater than or equal to 0.0 and less than or equal to 30.0)

C#CC(=O)NCc1nn(-c2ccccc2)c2c1[C@H](c1ccc(F)cc1)[C@H](NC(=O)c1cccc(C(F)(F)F)c1)C(=O)N2CC (racemic) [Compound I-181]
EC50 [1]: ≤ 100 nM | Nanostring Ymax obs (%) [1]: + (Nanostring Ymax greater than or equal to 0.0 and less than or equal to 50.0) | IC50 [2]: ≤ 100 nM | % Adduct Formation (DCN1 protein): + (MS Emax % adduct formation greater than or equal to 0.0 and less than or equal to 30.0)

CC#CC(=O)NCc1nn(-c2ccccc2)c2c1[C@H](c1ccc(F)cc1)[C@H](NC(=O)c1cccc(C(F)(F)F)c1)C(=O)N2CC (racemic) [Compound I-184]
Nanostring Ymax obs (%) [1]: ++ (Nanostring Ymax greater than 50.0 and less than or equal to 100.0) | IC50 [2]: 100 to 1000 nM | % Adduct Formation (DCN1 protein): + (MS Emax % adduct formation greater than or equal to 0.0 and less than or equal to 30.0)

C=C(CN1CCOCC1)C(=O)N(C)Cc1nn(-c2ccccc2)c2c1[C@H](c1ccc(F)cc1)[C@H](NC(=O)c1cccc(C(F)(F)F)c1)C(=O)N2CC (racemic) [Compound I-185]
Nanostring Ymax obs (%) [1]: ++ (Nanostring Ymax greater than 50.0 and less than or equal to 100.0) | IC50 [2]: 100 to 1000 nM | % Adduct Formation (DCN1 protein): + (MS Emax % adduct formation greater than or equal to 0.0 and less than or equal to 30.0)

CCN1C(=O)[C@@H](NC(=O)c2cccc(C(F)(F)F)c2)[C@@H](c2ccc(F)cc2)c2c(Cn3sccc3=O)nn(-c3ccccc3)c21 (racemic) [Compound I-192, rac-N-((4R,5R)-7-ethyl-4-(4-fluorophenyl)-6-oxo-3-((3-oxoisothiazol-2(3H)-yl)methyl)-1-phenyl-4,5,6,7-tetrahydro-1H-pyrazolo[3,4-b]pyridine-5-yl)-3-(trifluoromethyl)benzamide]
EC50 [1]: 100 to 1000 nM | Nanostring Ymax obs (%) [1]: + (Nanostring Ymax greater than or equal to 0.0 and less than or equal to 50.0) | IC50 [2]: 100 to 1000 nM | % Adduct Formation (DCN1 protein): ++ (MS Emax % adduct formation greater than 30.0 and less than or equal to 80.0)

C#CC(=O)N(C)Cc1nn(-c2ccccc2)c2c1[C@H](c1ccc(F)cc1)[C@H](NC(=O)c1cccc(C(F)(F)F)c1)C(=O)N2CC (racemic) [Compound I-201]
EC50 [1]: ≤ 100 nM | Nanostring Ymax obs (%) [1]: + (Nanostring Ymax greater than or equal to 0.0 and less than or equal to 50.0) | IC50 [2]: 100 to 1000 nM | % Adduct Formation (DCN1 protein): +++ (MS Emax % adduct formation greater than 80.0 and less than or equal to 100.0)

C=CC(=O)NCc1nn(-c2ccccc2)c2c1[C@H](c1ccc(F)cc1)[C@H](NC(=O)c1cccc(C(F)(F)F)c1)C(=O)N2CC (racemic) [Compound I-202]
Nanostring Ymax obs (%) [1]: + (Nanostring Ymax greater than or equal to 0.0 and less than or equal to 50.0) | IC50 [2]: 100 to 1000 nM | % Adduct Formation (DCN1 protein): + (MS Emax % adduct formation greater than or equal to 0.0 and less than or equal to 30.0)

CCN1C(=O)[C@@H](NC(=O)c2cccc(C(F)(F)F)c2)[C@@H](c2ccc(F)cc2)c2c(CNC(=O)/C=C/CN3CCC3)nn(-c3ccccc3)c21 (racemic) [Compound I-203]
EC50 [1]: 100 to 1000 nM | Nanostring Ymax obs (%) [1]: + (Nanostring Ymax greater than or equal to 0.0 and less than or equal to 50.0) | IC50 [2]: 100 to 1000 nM | % Adduct Formation (DCN1 protein): + (MS Emax % adduct formation greater than or equal to 0.0 and less than or equal to 30.0)

CCN1C(=O)[C@@H](NC(=O)c2cccc(C(F)(F)F)c2)[C@@H](c2ccc(F)cc2)c2c(CNC(=O)C3=CCC3)nn(-c3ccccc3)c21 (racemic) [Compound I-204]
EC50 [1]: > 1000 nM | Nanostring Ymax obs (%) [1]: + (Nanostring Ymax greater than or equal to 0.0 and less than or equal to 50.0) | IC50 [2]: 100 to 1000 nM | % Adduct Formation (DCN1 protein): + (MS Emax % adduct formation greater than or equal to 0.0 and less than or equal to 30.0)

C=C(C)C(=O)NCc1nn(-c2ccccc2)c2c1[C@H](c1ccc(F)cc1)[C@H](NC(=O)c1cccc(C(F)(F)F)c1)C(=O)N2CC (racemic) [Compound I-206]
EC50 [1]: > 1000 nM | Nanostring Ymax obs (%) [1]: + (Nanostring Ymax greater than or equal to 0.0 and less than or equal to 50.0) | IC50 [2]: 100 to 1000 nM | % Adduct Formation (DCN1 protein): + (MS Emax % adduct formation greater than or equal to 0.0 and less than or equal to 30.0)

CCN1C(=O)[C@@H](NC(=O)c2cccc(C(F)(F)F)c2)[C@@H](c2ccc(F)cc2)c2c(CN(C)C(=O)CCl)nn(-c3ccccc3)c21 (racemic) [Compound I-227]
EC50 [1]: 100 to 1000 nM | Nanostring Ymax obs (%) [1]: ++ (Nanostring Ymax greater than 50.0 and less than or equal to 100.0) | IC50 [2]: ≤ 100 nM | % Adduct Formation (DCN1 protein): ++ (MS Emax % adduct formation greater than 30.0 and less than or equal to 80.0)

CCN1C(=O)[C@@H](NC(=O)c2cccc(C(F)(F)F)c2)[C@@H](c2ccc(F)cc2)c2c(CNC(=O)/C(C#N)=C/C(C)C)nn(-c3ccccc3)c21 (racemic) [Compound I-241]
Nanostring Ymax obs (%) [1]: + (Nanostring Ymax greater than or equal to 0.0 and less than or equal to 50.0) | IC50 [2]: ≤ 100 nM | % Adduct Formation (DCN1 protein): +++ (MS Emax % adduct formation greater than 80.0 and less than or equal to 100.0)

CCN1C(=O)[C@@H](NC(=O)c2cccc(C(F)(F)F)c2)[C@@H](c2ccc(F)cc2)c2c([C@@H](C)NC(=O)C(C)Br)nn(-c3ccccc3)c21 (stereo in doubt) [Compound I-197]
EC50 [1]: > 1000 nM | Nanostring Ymax obs (%) [1]: ++ (Nanostring Ymax greater than 50.0 and less than or equal to 100.0) | IC50 [2]: > 1000 nM | % Adduct Formation (DCN1 protein): + (MS Emax % adduct formation greater than or equal to 0.0 and less than or equal to 30.0)
